Test results as given in patent US12473304B2, “Heterocyclic PAD4 inhibitors” (BRISTOL-MYERS SQUIBB COMPANY, priority 2020, dated 2025).

biological target: human PAD4 (hPAD4) (Homo sapiens (Human), UniProt Q9UM07); assay: RFMS Human PAD4 Functional Assay 1; type: biochemical; conditions: RFMS assay 1; 5 nM hPAD4, 250 μM BAEE substrate, 50 μM calcium, 37° C.
Protocol: RFMS Human PAD4 Functional Assay 1:
Compounds were solubilized in 100% DMSO to achieve all) mM compound concentration. Compound stock solutions were stored at RT. A series of dilutions were prepared in DMSO and mixed 8 times with 20 μL mixing volume. Final top concentration of compound in the assay is 50 μM. Final assay conditions were as follows: • Reaction volume: 26 μl • Assay buffer: 25 mM hepes, pH 7.5, 5 mM NaCl, 1 mM DTT, 0.2 mg/ml BSA, 0.01% CHAPS, 50 μM Calcium, and 5 μM TPEN • Final concentrations: 5 nM hPAD4 enzyme, 250 μM BASE, and 0.5% DMSO • Total incubation time: 30 mins compound and enzyme preincubation at 37° C., 90 min enzyme/substrate reaction, 30 min reaction with phenyl glyoxal at 37° C. • Stop solution: 40 μl 5% TCA in ACN
0.13 μL of compound solution was added to 13 μL of 10 nM PAD4 in assay buffer. After 30 min 13 μl of 500 μM of BAEE was added in 25 mM hepes, pH 7.5, 5 mM NaCl, 1 mM DTT, 0.2 mg/ml BSA, 0.01% CHAPS, 50 μM Calcium, 5 μM TPEN was added and the reaction incubated for 90 min at 37° C. The enzymatic reaction was quenched by addition of 15 μl of 6.1N TCA, 100% Final Concentration is 20%, 35 μl of 8.5 mM phenyl glyoxal (final concentration 4 mM) is then added and the reaction is incubated for 30 min at 37° C.
After 30 minutes the plates are spun down to remove all precipitate. The enzyme reaction was quenched with an equal volume of methanol containing internal standard (modified citrulline). Samples were loaded onto the Rapid Fire RF300 system (Agilent) wherein they were first sipped for 1000 ms and then directly loaded to a C18 separations cartridge using a mixture of acetonitrile containing 0.01% formic acid for 3000 ms desalting. The flow rate of the mobile phase was 1.5 ml/min. Once the samples were eluted from the cartridge, a mobile phase of acetonitrile containing 0.01% formic acid was used to move the samples into the mass spectrometer for 4000 ms at a flow rate of 1.25 ml/min/Sciex API5500 triple quadrupole mass spectrometer (Applied Biosystems) equipped with ESI was used to analyze the peptidyl citrulline and internal standard ions.
MRM transition of product and internal standard were monitored at m/z 424.5 to 350.4 and m/z 293 to 247 respectively. The dwell time for each transition was set at 200 ms, and the ESI voltage was used at 5500 with a source temperature of 400° C. Extracted ion peaks for each transition were integrated using the Rapid Fire Integrator software. Peak area of analyte was normalized with internal standard.).

human PAD4 (hPAD4), sequence (Q9UM07 whole entry): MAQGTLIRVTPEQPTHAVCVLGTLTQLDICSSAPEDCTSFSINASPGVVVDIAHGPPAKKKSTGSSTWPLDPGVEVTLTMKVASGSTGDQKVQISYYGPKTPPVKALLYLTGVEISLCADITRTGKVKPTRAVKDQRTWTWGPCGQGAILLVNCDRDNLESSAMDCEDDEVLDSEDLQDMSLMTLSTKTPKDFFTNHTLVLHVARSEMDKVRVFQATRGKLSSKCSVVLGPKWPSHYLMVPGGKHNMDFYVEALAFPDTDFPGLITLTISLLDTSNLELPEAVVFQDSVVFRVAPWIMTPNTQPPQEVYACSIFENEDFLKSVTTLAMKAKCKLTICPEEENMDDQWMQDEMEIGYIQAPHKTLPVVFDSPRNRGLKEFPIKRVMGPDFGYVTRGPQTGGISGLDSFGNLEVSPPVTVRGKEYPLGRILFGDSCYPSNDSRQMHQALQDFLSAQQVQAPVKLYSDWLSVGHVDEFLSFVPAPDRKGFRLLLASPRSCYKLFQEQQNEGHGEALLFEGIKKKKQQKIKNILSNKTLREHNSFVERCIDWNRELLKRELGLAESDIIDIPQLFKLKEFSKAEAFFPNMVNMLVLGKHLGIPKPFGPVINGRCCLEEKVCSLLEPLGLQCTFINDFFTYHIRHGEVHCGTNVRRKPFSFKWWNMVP

Row | IC50 [µM] | SMILES
1 | 0.13 | Cc1c(-c2cc3cccc(C4CCN(C(=O)C5CC(O)C5)CC4)c3n2CC2CC2)nn2cc(C(=O)N3CCC[C@@H](N)C3)ccc12 (mixture of isomers) [Example 465, (R)-(3-aminopiperidin-1-yl)(2-(1-(cyclopropylmethyl)-7-(1-(3-hydroxycyclobutane-1-carbonyl)piperidin-4-yl)-1H-indol-2-yl)-3-methylpyrazolo[1,5-a]pyridin-6-yl)methanone]
2 | 0.19 | Cc1c(-c2cc3cccc(C4CCN(C(=O)C5CC(O)C5)CC4)c3n2CC2CC2)nn2cc(C(=O)N3C[C@H](N)C[C@@H](F)C3)ccc12 (mixture of isomers) [Example 466, ((3R,5R)-3-amino-5-fluoropiperidin-1-yl)(2-(1-(cyclopropylmethyl)-7-(1-(3-hydroxycyclobutane-1-carbonyl)piperidin-4-yl)-1H-indol-2-yl)-3-methylpyrazolo[1,5-a]pyridin-6-yl)methanone]
3 | 0.02 | Cc1c(-c2cc3cccc(C4CCN(C(=O)C5CC(O)C5)CC4)c3n2CC2CC2)nn2cc(C(=O)N3CC4CCC3[C@@H]4N)ccc12 (mixture of isomers) [Example 467, (4-(2-(6-((7R)-7-amino-2-azabicyclo[2.2.1]heptane-2-carbonyl)-3-methylpyrazolo[1,5-a]pyridin-2-yl)-1-(cyclopropylmethyl)-1H-indol-7-yl)piperidin-1-yl)(3-hydroxycyclobutyl)methanone]
4 | 0.13 | Cc1c(-c2cc3cc(F)cc(C4CCN(C(=O)C5CC(O)C5)CC4)c3n2CC2CC2)nn2cc(C(=O)N3CCC[C@@H](N)C3)ccc12 (mixture of isomers) [Example 492, (R)-(3-Aminopiperidin-1-yl)(2-(1-(cyclopropylmethyl)-5-fluoro-7-(1-(3-hydroxycyclobutane-1-carbonyl)piperidin-4-yl)-1H-indol-2-yl)-3-methylpyrazolo[1,5-a]pyridin-6-yl)methanone]
5 | 0.02 | Cc1c(-c2cc3cc(F)cc(C4CCN(C(=O)C5CC(O)C5)CC4)c3n2CC2CC2)nn2cc(C(=O)N3C[C@H](N)C[C@@H](F)C3)ccc12 (mixture of isomers) [Example 496, ((3R,5R)-3-Amino-5-fluoropiperidin-1-yl)(2-(1-(cyclopropylmethyl)-5-fluoro-7-(1-(3-hydroxycyclobutane-1-carbonyl)piperidin-4-yl)-1H-indol-2-yl)-3-methylpyrazolo[1,5-a]pyridin-6-yl)methanone]
6 | 0.06 | Cc1c(-c2cc3cc(F)cc(C4CCN(C(=O)C5CC(O)(C(F)(F)F)C5)CC4)c3n2CC2CC2)nn2cc(C(=O)N3C[C@H](N)C[C@@H](F)C3)ccc12 (mixture of isomers) [Example 505, ((3R,5R)-3-Amino-5-fluoropiperidin-1-yl)(2-(1-(cyclopropylmethyl)-5-fluoro-7-(1-(3-hydroxy-3-(trifluoromethyl)cyclobutane-1-carbonyl)piperidin-4-yl)-1H-indol-2-yl)-3-methylpyrazolo[1,5-a]pyridin-6-yl)methanone]
7 | 0.04 | Cc1c(-c2cc3cc(F)cc(C4CCN(C(=O)C5CCCCO5)CC4)c3n2CC2CC2)nn2cc(C(=O)N3CCC[C@@H](N)C3)ccc12 (mixture of isomers) [Example 508, ((R)-3-Aminopiperidin-1-yl)(2-(1-(cyclopropylmethyl)-5-fluoro-7-(1-(tetrahydro-2H-pyran-2-carbonyl)piperidin-4-yl)-1H-indol-2-yl)-3-methylpyrazolo[1,5-a]pyridin-6-yl)methanone]
8 | 0.35 | Cc1c(-c2cc3cc(F)cc(C4CCN(C(=O)C5CCCCO5)CC4)c3n2CC2CC2)nn2cc(C(=O)N3C[C@H](N)C[C@@H](F)C3)ccc12 (mixture of isomers) [Example 509, ((3R,5R)-3-Amino-5-fluoropiperidin-1-yl)(2-(1-(cyclopropylmethyl)-5-fluoro-7-(1-(tetrahydro-2H-pyran-2-carbonyl)piperidin-4-yl)-1H-indol-2-yl)-3-methylpyrazolo[1,5-a]pyridin-6-yl)methanone]
9 | 0.06 | COc1cc(C(=O)N2CCC[C@@H](N)C2)cn2nc(-c3cc4cccc(C5CN(C(=O)C6CC(O)(C(F)(F)F)C6)C5)c4n3CC3CC3)c(C)c12 (mixture of isomers) [Example 515, (R)-(3-Aminopiperidin-1-yl)(2-(1-(cyclopropylmethyl)-7-(1-(3-hydroxy-3-(trifluoromethyl)cyclobutane-1-carbonyl)azetidin-3-yl)-1H-indol-2-yl)-4-methoxy-3-methylpyrazolo[1,5-a]pyridin-6-yl)methanone]
10 | 0.07 | Cc1c(-c2cc3cccc(C4CN(C(=O)C5CC(O)(C(F)(F)F)C5)C4)c3n2CC2CC2)nn2cc(C(=O)N3CCC[C@@H](N)C3)ccc12 (mixture of isomers) [Example 535, (R)-(3-Aminopiperidin-1-yl)(2-(1-(cyclopropylmethyl)-7-(1-(3-hydroxy-3-(trifluoromethyl)cyclobutane-1-carbonyl)azetidin-3-yl)-1H-indol-2-yl)-3-methylpyrazolo[1,5-a]pyridin-6-yl)methanone]
11 | 1.07 | Cc1c(-c2cc3cccc(C4CN(C(=O)C5CCCCO5)C4)c3n2CC2CC2)nn2cc(C(=O)N3C[C@H](N)C[C@@H](F)C3)ccc12 (mixture of isomers) [Example 544, ((3R,5R)-3-Amino-5-fluoropiperidin-1-yl)(2-(1-(cyclopropylmethyl)-7-(1-(tetrahydro-2H-pyran-2-carbonyl)azetidin-3-yl)-1H-indol-2-yl)-3-methylpyrazolo[1,5-a]pyridin-6-yl)methanone]
12 | 0.26 | Cc1c(-c2cc3cccc(C4CN(C(=O)C5CCCCO5)C4)c3n2CC2CC2)nn2cc(C(=O)N3CCC[C@@H](N)C3)ccc12 (mixture of isomers) [Example 545, ((R)-3-Aminopiperidin-1-yl)(2-(1-(cyclopropylmethyl)-7-(1-(tetrahydro-2H-pyran-2-carbonyl)azetidin-3-yl)-1H-indol-2-yl)-3-methylpyrazolo[1,5-a]pyridin-6-yl)methanone]
13 | 0.01 | COc1cc(C(=O)N2CC3CCC2[C@@H]3N)cn2nc(-c3cc4ccnc(OCC5CNC(=O)C5)c4n3CC3CC3)c(C)c12 (mixture of isomers) [Example 608, 4-(((2-(6-((7R)-7-Amino-2-azabicyclo[2.2.1]heptane-2-carbonyl)-4-methoxy-3-methylpyrazolo[1,5-a]pyridin-2-yl)-1-(cyclopropylmethyl)-1H-pyrrolo[2,3-c]pyridin-7-yl)oxy)methyl)pyrrolidin-2-one (mixture of diastereomers)]
14 | 0.208 | Cc1c(-c2cc3ccc(C(C)(O)C(F)(F)F)nc3n2CC2CC2)nn2cc(C(=O)N3C[C@H](N)C[C@@H](F)C3)ccc12 (single isomer, unassigned) [Example 106]
15 | 0.24 | Cc1c(-c2cc3ccc(C(C)(O)C(F)(F)F)nc3n2CC2CC2)nn2cc(C(=O)N3C[C@H](N)C[C@@H](F)C3)ccc12 (single isomer, unassigned) [Example 107]
16 | 0.08 | COc1cc(C(=O)N2CCC[C@@H](N)C2)cn2nc(-c3cc4cccc(C5CCN(C(=O)C6CCCCO6)CC5)c4n3CC3CC3)c(C)c12 (single isomer, unassigned) [Example 386]
17 | 0.23 | COc1cc(C(=O)N2CCC[C@@H](N)C2)cn2nc(-c3cc4cccc(C5CCN(C(=O)C6CCCCO6)CC5)c4n3CC3CC3)c(C)c12 (single isomer, unassigned) [Example 387]
